Results reported in patent US9737512B2, “Methods and compositions for treating chronic pain” (THE BOARD OF REGENTS OF THE UNIVERSITY OF TEXAS SYSTEM, priority 2015, dated 2017).

What was measured:
[1] = tested on: CFA-induced mechanical allodynia; test: CFA-induced mechanical allodynia, von Frey test; type: in vivo, mice
Experimental: FIG. 1. Effect of ESI-09 in CFA-induced inflammatory mechanical allodynia. (A) Mice (n=4/group) received 5 μl CFA intraplantarly in the hind paws and were treated with vehicle or ESI-09 20 mg/kg (n=4) daily by oral gavage for 6 days starting immediately after CFA injection. Mechanical allodynia was quantified with von Frey Hairs using the up and down method at 24 hours after ESI treatment. (B) CFA-induced mechanical allodynia in WT, heterozygous, and homozygous Epac1-knockout mice. The sensitivity to mechanical stimulation was followed over time in wild-type (WT, n=3), Epac1^+/− (HE, n=6) and Epac1^−/− (HO, n=5) mice after intraplantar injection of 5 μl CFA. […] (D) Dose-response curve for the effect of ESI-09 (5, 20, or 50 mg/kg). Treatment was started on the 3rd day after CFA administration (n=4/group) (E) Mechanical allodynia was measured in WT mice with 6 days treatments of ESI-09 20 (n=3) and 50 mg/kg (n=4) to control for a potential effect on baseline mechanical sensitivity. Data are expressed as 50% withdrawal threshold in grams calculated as described in the methods section and represent mean±SEM. […] In FIG. 1B, *p<0.05, ** p<0.01 for WT versus HO, #p<0.05, ##P<0.01 for WT versus HE, +p<0.05, ++p<0.01 for HE versus HO. In FIG. 1D, **p<0.01 and ##p<0.01 are ESI-09 50 mg/kg and ESI-09 20 mg/kg compared to the Vehicle treated mice.
To determine whether the Epac inhibitor ESI-09 can be used to treat inflammatory pain, the CFA model was used. CFA was administered intraplantarly and mice were treated with ESI-09 20 mg/kg daily by oral gavage for 6 days starting immediately after injection of CFA. Mechanical allodynia was examined using the von Frey test.
ESI-09 20 mg/kg was administered orally three days after CFA. […] The effect of ESI-09 was dose-dependent (FIG. 1D). […] The beneficial effect of ESI-09 was detectable until at least 24 hours after the last dose. No effect of daily oral administration of 50 mg/kg ESI-09 on mechanical sensitivity in saline treated control mice was observed ([…]).

[2] = tested on: CFA-induced heat hyperalgesia; test: CFA-induced heat hyperalgesia, Hargreaves test; type: in vivo, mice
Experimental: FIG. 2. Effect of ESI-09 on CFA-induced heat hyperalgesia. (A) Mice (n=4/group) received 5 μl CFA intraplantarly in the hind paws and were treated with vehicle or ESI-09 20 mg/kg (n=4) daily by oral gavage for 6 days starting after CFA injection. Heat hyperalgesia was determined using the Hargreaves test and is expressed as heat-withdrawal latency in seconds. (B) CFA-induced heat hyperalgesia in WT and Epac1−/− mice. (C) Heat sensitivity of saline treated mice with 20 mg/kg ESI-09. Data represent mean±SEM (n=4 per group).
Intraplantar administration of CFA also induces significant heat hyperalgesia (FIG. 2A). However, no effect of ESI-09 (20 mg/kg) on heat hyperalgesia was detected (FIG. 2A). Consistently, CFA-induced heat hyperalgesia was not different between WT and Epac1−/− mice.

[3] = tested on: SNI-induced mechanical allodynia; test: Spared nerve injury (SNI)-induced mechanical allodynia, von Frey; type: in vivo, mice
Experimental: FIG. 3. Effect of ESI-09 on Spared nerve injury (SNI)-induced mechanical allodynia. Spared nerve injury was performed on WT mice and mice were treated daily with ESI-09 (50 mg/kg) or vehicle by oral gavage for 6 days starting on the 3rd day after SNI. Mechanical allodynia was monitored in (A) ipsi- and (B) contralateral paw using von Frey hairs and the up and down method at 24 hours after ESI-treatment (n=7 per group). Data are expressed as 50% paw withdrawal thresholds calculated as described in the methods section and represent mean±SEM. n=7/group. *p<0.05, **p<0.01 vs. vehicle group.
It has been shown that EPAC1−/− mice are protected against neuropathic pain in a model of nerve injury. The effect of ESI-09 in the spared nerve injury (SNI) model of chronic neuropathic pain was examined. […] As expected, mice treated with vehicle developed unilateral mechanical allodynia ([…]). […] The beneficial effect of ESI-09 was maintained for 48 hours after the last dose.

[4] = tested on: paclitaxel-induced mechanical allodynia; test: Paclitaxel (chemotherapy)-induced mechanical allodynia, von Frey; type: in vivo, mice
Experimental: FIG. 4. Effect of ESI-09 on chemotherapy-induced mechanical allodynia. Mice (n=5/group) were treated with paclitaxel (10 mg/kg, Monday, Wednesday and Friday) for two weeks. ESI-09 (20 mg/kg) or vehicle was given by oral gavage for 6 days starting on the first day (A) or 10 days (B) after completion of paclitaxel treatment. The sensitivity to mechanical stimulation was determined in wild-type (n=5) and Epac1−/− (n=4) in the same paclitaxel model (C). Mechanical allodynia was monitored by von Frey hair using the up and down method. Data are expressed as means±SEM. *p<0.05, ** p<0.01.
Chemotherapy-induced peripheral neuropathy is a frequent side effect of cancer treatment, and currently there are no FDA-approved drugs to treat or prevent chemotherapy-induced neuropathy. The model of paclitaxel-induced mechanical allodynia to investigate the potential effect of ESI-09 on chemotherapy-induced neuropathy. Mice were treated with three doses (10 mg/kg/dose) of paclitaxel per week for 2 weeks. Administration of ESI-09 was started on the first day after completion of paclitaxel treatment when there was clear allodynia present. Mice were treated daily with ESI-09 (20 mg/kg) or vehicle by oral gavage for 6 days. […] The beneficial effect of treatment was detectable until 72 hours after the last dose of ESI-09. In a second set of experiments, ESI-09 treatment was delayed until 10 days after the completion of paclitaxel treatment.

EPAC2 = target: T1, EPAC2 (Mus musculus, UniProt Q9EQZ6); conditions: cited from earlier work
T1 sequence (Q9EQZ6 1-1011): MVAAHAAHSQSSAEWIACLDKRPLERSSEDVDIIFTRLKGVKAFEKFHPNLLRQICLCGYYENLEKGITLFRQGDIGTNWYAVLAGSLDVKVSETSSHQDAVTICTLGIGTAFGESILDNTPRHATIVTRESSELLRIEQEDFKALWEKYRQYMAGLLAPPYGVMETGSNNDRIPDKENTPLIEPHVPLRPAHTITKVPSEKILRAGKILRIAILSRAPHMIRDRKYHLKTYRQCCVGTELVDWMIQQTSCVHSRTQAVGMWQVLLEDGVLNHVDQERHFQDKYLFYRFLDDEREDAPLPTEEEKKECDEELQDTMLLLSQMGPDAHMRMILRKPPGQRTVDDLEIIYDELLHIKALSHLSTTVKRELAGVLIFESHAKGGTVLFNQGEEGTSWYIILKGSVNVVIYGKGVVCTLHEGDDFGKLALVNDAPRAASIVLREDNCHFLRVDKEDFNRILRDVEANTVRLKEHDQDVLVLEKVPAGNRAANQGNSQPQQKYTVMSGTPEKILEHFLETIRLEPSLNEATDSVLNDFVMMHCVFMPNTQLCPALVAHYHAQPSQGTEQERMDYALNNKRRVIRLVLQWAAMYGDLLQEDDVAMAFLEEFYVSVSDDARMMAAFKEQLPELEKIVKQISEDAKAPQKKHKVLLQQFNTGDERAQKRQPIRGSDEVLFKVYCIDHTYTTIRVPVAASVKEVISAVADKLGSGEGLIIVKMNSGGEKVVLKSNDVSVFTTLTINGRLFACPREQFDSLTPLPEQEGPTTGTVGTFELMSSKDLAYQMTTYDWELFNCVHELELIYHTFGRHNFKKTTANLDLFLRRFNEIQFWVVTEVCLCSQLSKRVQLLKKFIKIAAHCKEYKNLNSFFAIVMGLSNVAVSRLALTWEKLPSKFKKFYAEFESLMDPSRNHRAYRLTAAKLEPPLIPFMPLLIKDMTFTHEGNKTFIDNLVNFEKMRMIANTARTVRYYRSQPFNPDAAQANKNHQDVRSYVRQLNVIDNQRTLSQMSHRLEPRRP

PKA = conditions: at 25 μM; cited from earlier work
pancreatic cell lines = conditions: cited from earlier work
[5] = tested on: pancreatic cancer cell lines; conditions: cited from earlier work
rickettsioses = conditions: daily 10 mg/kg IP or 50 mg/kg oral gavage, mice; cited from earlier work
[6] = tested on: ovalbumin-induced oral tolerance; conditions: daily 10 mg/kg IP or 50 mg/kg oral gavage; cited from earlier work
[7] = 50 mg/kg oral gavage daily 6 days, starting 3 days after SNI

CC(C)(C)c1cc(C(=O)/C(C#N)=N/Nc2cccc(Cl)c2)no1 [ESI-09, 3-(5-tert-Butyl-isoxazol-3-yl)-2-[(3-chlorophenyl)-hydrazono]-3-oxo-propionitrile]
CFA-induced mechanical allodynia ([1]; 5 mg/kg (lowest dose), started 3rd day after CFA): did not observe an effect
CFA-induced mechanical allodynia ([1]; 20 mg/kg daily oral gavage 6 days, starting immediately after CFA): strongly inhibited
time inhibition is maintained after administration ([1]; 20 mg/kg oral, started three days after CFA): at least 24 h
inhibition of CFA-induced mechanical allodynia at 2 hours ([1]; 20 mg/kg oral, started three days after CFA, 2 hours after administration): Partial inhibition
inhibition of CFA-induced mechanical allodynia at 6 hours ([1]; 20 mg/kg oral, started three days after CFA, 6 hours after administration): fully developed
CFA-induced mechanical allodynia ([1]; 20 mg/kg, started 3rd day after CFA): significantly reduced
mechanical sensitivity in saline treated control mice ([1]; 50 mg/kg daily oral): No effect
CFA-induced mechanical allodynia ([1]; 50 mg/kg, started 3rd day after CFA): significantly reduced
dose dependence of effect on CFA-induced mechanical allodynia ([1]; 5, 20 or 50 mg/kg, started 3rd day after CFA): dose-dependent
time beneficial effect detectable after the last dose ([1]; CFA model): at least 24 hours
mechanical sensitivity of control mice ([1]; ESI-09 given to control mice (no CFA)): did not have any effect
CFA-induced heat hyperalgesia ([2]; 20 mg/kg daily oral gavage): no effect
heat sensitivity of naïve animals ([2]; naïve animals): did not affect
SNI-induced mechanical allodynia, ipsilateral paw [3, 7]: almost completely reversed
normal mechanical sensitivity, contralateral paw [3, 7]: without affecting
time beneficial effect maintained after the last dose ([3]; SNI model, 50 mg/kg): 48 h
paclitaxel-induced mechanical allodynia ([4]; 20 mg/kg oral gavage daily 6 days, started first day after completion of paclitaxel): almost completely rescued
time beneficial effect detectable after the last dose ([4]; paclitaxel model, 20 mg/kg): 72 h
paclitaxel-induced mechanical allodynia, later phase ([4]; treatment delayed until 10 days after completion of paclitaxel): significantly inhibited
IC50 (EPAC2): 1400 nM
activity against PKA (PKA): no activity
insulin secretion (pancreatic cell lines): blocks
phosphorylation of Akt (pancreatic cell lines): blocks
migration of pancreatic cancer cell lines [5]: inhibits
protection from lethal rickettsioses (recapitulates EPAC1 knockout phenotype) (rickettsioses): protecting mice from lethal rickettsioses
ovalbumin-induced oral tolerance (recapitulates EPAC1 knockout phenotype) [6]: compromising ovalbumin-induced oral tolerance
